A word on the IC50: it is the concentration needed to halve the response being measured. For orientation: Ki means a dissociation constant, usually derived from enzyme kinetics or from competition with a known ligand.

We go through 20 compounds from ChEMBL document CHEMBL1909046, “DrugMatrix in vitro pharmacology data”.

One assay deals with Vasopressin V1a receptor (Homo sapiens, UniProt P37288). It is filed as cell membranes, Membrane. As to conditions: hek293.
Assay [1] has as its target Receptor tyrosine-protein kinase erbB-2 (Homo sapiens, UniProt P04626). It is filed as cell-based. The following applies: insect cells.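 Also: inhibition of HER2 kinase enzyme activity, measured with Poly(Glu:Tyr) as the phosphorylation substrate; in other assays of this panel Not Active means under 50% inhibition at 10 µM.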
Assay [2] deals with 5-hydroxytryptamine receptor 2B (Homo sapiens, UniProt P41595). It is filed as cell membranes, CHO-K1, Membrane.
Sequence of 5-hydroxytryptamine receptor 2B (P41595 whole entry): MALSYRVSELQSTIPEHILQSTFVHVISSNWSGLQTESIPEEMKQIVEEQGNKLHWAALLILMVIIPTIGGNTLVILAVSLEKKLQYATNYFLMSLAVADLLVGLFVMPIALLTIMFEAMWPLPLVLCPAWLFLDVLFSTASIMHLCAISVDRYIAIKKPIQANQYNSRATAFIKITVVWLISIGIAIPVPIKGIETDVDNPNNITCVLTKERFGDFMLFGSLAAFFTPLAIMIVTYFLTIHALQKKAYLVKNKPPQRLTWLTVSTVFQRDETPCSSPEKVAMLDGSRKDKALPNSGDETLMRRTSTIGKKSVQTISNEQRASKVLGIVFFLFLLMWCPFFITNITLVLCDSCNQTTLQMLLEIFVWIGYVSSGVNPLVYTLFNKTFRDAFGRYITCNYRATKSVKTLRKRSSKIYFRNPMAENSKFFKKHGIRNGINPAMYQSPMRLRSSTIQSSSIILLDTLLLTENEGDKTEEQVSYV
The target in assay [3] is T1, 5-hydroxytryptamine receptor 2C (Homo sapiens, UniProt P28335).
T1 sequence (P28335 whole entry): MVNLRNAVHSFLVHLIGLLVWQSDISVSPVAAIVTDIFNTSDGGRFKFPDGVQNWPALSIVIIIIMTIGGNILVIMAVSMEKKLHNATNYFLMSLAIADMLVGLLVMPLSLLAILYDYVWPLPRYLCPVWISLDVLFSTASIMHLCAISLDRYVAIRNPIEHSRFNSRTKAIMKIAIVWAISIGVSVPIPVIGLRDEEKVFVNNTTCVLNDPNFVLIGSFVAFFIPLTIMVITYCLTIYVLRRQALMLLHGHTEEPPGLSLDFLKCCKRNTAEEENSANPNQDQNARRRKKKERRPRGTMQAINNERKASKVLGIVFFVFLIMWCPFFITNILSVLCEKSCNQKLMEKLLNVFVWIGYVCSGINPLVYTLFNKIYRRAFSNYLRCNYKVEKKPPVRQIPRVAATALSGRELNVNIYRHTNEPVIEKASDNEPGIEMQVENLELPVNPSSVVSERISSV
The assay can be described thus: DRUGMATRIX: Serotonin (5-Hydroxytryptamine) 5-HT2C radioligand binding (ligand: [3H] Mesulergine). It is filed as cell membranes, CHO-K1, Membrane. The following applies: Not Active = under 50% inhibition at 10 µM.

For the next assay, the target named is Acetylcholinesterase (Homo sapiens, UniProt P22303). The assay can be described thus: DRUGMATRIX: Acetylcholinesterase enzyme inhibition (substrate: acetylthiocholine). It is filed as cell-based, HEK293. As to conditions: Not Active = under 50% inhibition at 10 µM.
Sequence of Acetylcholinesterase (P22303 whole entry): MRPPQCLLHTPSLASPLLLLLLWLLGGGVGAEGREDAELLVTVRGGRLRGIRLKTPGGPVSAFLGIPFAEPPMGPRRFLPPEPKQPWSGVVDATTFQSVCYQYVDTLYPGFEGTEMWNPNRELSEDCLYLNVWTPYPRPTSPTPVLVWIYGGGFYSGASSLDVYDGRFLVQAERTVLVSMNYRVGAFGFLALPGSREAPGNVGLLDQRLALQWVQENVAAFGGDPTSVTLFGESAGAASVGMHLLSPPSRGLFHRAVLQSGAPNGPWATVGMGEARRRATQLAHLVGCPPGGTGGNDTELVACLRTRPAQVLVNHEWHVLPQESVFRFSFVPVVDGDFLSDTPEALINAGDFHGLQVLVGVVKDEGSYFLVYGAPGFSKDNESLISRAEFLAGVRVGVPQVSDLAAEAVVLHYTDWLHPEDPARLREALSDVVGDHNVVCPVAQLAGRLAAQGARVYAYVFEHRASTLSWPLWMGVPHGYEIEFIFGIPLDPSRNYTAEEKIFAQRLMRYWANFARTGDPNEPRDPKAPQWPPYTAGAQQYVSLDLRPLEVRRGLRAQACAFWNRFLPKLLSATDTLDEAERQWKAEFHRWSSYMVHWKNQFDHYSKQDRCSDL
A further assay deals with T2, Cathepsin G (Homo sapiens, UniProt P08311).
T2 sequence (P08311 whole entry): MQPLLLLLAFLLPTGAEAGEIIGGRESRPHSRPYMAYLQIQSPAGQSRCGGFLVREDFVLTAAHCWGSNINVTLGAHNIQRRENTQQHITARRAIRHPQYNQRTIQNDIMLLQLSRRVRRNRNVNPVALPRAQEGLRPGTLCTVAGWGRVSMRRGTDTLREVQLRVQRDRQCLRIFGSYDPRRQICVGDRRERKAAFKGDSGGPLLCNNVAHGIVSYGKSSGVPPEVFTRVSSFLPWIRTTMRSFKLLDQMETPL
Description: biochemical. As to conditions: neutrophil. It is filed as tissue-based, Neutrophil.

Sequence of Vasopressin V1a receptor (P37288 whole entry): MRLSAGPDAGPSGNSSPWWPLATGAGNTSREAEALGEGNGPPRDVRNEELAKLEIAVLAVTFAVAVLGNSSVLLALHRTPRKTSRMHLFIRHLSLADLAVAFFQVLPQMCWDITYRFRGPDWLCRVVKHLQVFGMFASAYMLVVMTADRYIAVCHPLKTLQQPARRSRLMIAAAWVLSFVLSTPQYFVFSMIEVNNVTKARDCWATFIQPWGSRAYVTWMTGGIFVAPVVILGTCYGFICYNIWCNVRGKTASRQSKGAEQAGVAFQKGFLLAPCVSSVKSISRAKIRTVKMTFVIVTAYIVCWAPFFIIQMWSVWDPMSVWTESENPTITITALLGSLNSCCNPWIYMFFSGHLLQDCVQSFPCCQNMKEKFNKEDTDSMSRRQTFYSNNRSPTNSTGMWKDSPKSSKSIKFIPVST

Consider `Nc1nc(F)nc2c1ncn2[C@@H]1O[C@H](CO)[C@@H](O)[C@@H]1O` [FLUDARABINE], for which the concentration for half-maximal inhibition (IC50) entry (against Vasopressin V1a receptor; in assay [1]; in assay [2] (cho-k1); in assay [3] (cho-k1); at Acetylcholinesterase (hek293); against Cathepsin G) was “Not Active” each time.
With `c1ccc(Cn2ccnc2)cc1`, the IC50 result (at Vasopressin V1a receptor; in assay [1]; in assay [2] (cho-k1); in assay [3] (cho-k1); against Acetylcholinesterase (hek293); against Cathepsin G) was “Not Active” in each case.
In the case of `Nc1nc(N)c2nc(CNc3ccc(C(=O)N[C@@H](CCC(=O)O)C(=O)O)cc3)cnc2n1` [AMINOPTERIN], the IC50 entry (against Vasopressin V1a receptor; in assay [1]; in assay [2] (cho-k1); in assay [3] (cho-k1); against Acetylcholinesterase (hek293); on Cathepsin G) was “Not Active” throughout.
Turning to `C=C(Cl)Cl` [1,1-DICHLOROETHENE], the IC50 entry (against Vasopressin V1a receptor; in assay [1]; in assay [2] (cho-k1); in assay [3] (cho-k1); at Acetylcholinesterase (hek293); at Cathepsin G) was “Not Active” throughout.
Turning to `Oc1ncnc2[nH]ncc12` [ALLOPURINOL], the IC50 result (against Vasopressin V1a receptor; in assay [1]; in assay [2] (cho-k1); in assay [3] (cho-k1); on Acetylcholinesterase (hek293); on Cathepsin G) was “Not Active” in each case.
On to `O=C(O)CCc1nc(-c2ccccc2)c(-c2ccccc2)o1` [OXAPROZIN], for which the IC50 entry (on Vasopressin V1a receptor; in assay [1]; in assay [2] (cho-k1); in assay [3] (cho-k1); against Acetylcholinesterase (hek293); on Cathepsin G) was “Not Active” in each case.
For the compound `ClC1=C(Cl)[C@]2(Cl)[C@@H]3[C@@H]4C[C@@H]([C@H]5O[C@@H]45)[C@@H]3[C@@]1(Cl)C2(Cl)Cl` [DIELDRIN], the IC50 entry (on Vasopressin V1a receptor; in assay [1]; in assay [2] (cho-k1); in assay [3] (cho-k1); on Acetylcholinesterase (hek293); on Cathepsin G) was “Not Active” throughout.
Regarding `CC1(COc2ccc(CC3SC(=O)NC3=O)cc2)CCCCC1` (stereo not drawn) [CIGLITAZONE], the IC50 result against Vasopressin V1a receptor was “Not Active”; in assay [1] it was “Not Active”; in assay [2] (cho-k1), “Not Active”; in assay [3] (cho-k1), “Not Active”; at Acetylcholinesterase (read-out: IC50), 15000 nM; against Cathepsin G, “Not Active”.
Regarding `OC[C@H]1O[C@@H]2O[C@H]3[C@H](O)[C@@H](O)[C@@H](O[C@H]4[C@H](O)[C@@H](O)[C@@H](O[C@H]5[C@H](O)[C@@H](O)[C@@H](O[C@H]6[C@H](O)[C@@H](O)[C@@H](O[C@H]7[C@H](O)[C@@H](O)[C@@H](O[C@H]8[C@H](O)[C@@H](O)[C@@H](O[C@H]1[C@H](O)[C@H]2O)O[C@@H]8CO)O[C@@H]7CO)O[C@@H]6CO)O[C@@H]5CO)O[C@@H]4CO)O[C@@H]3CO` [BETADEX], the IC50 entry (against Vasopressin V1a receptor; in assay [1]; in assay [2] (cho-k1); in assay [3] (cho-k1); on Acetylcholinesterase (hek293); against Cathepsin G) was “Not Active” throughout.
Regarding `COc1ccc(Cl)cc1C(=O)NCCc1ccc(S(=O)(=O)NC(=O)NC2CCCCC2)cc1` [GLYBURIDE], the concentration for half-maximal inhibition (IC50) entry (against Vasopressin V1a receptor; in assay [1]; in assay [2] (cho-k1); in assay [3] (cho-k1); at Acetylcholinesterase (hek293); at Cathepsin G) was “Not Active” each time.
Regarding `COC(=O)Nc1nc2ccc(Sc3ccccc3)cc2[nH]1` [FENBENDAZOLE], the IC50 entry (on Vasopressin V1a receptor; in assay [1]; in assay [2] (cho-k1); in assay [3] (cho-k1); against Acetylcholinesterase (hek293); against Cathepsin G) was “Not Active” each time.
Consider `CNC[C@H](O)c1ccc(O)c(O)c1` [EPINEPHRINE], for which the half-inhibitory concentration (IC50) result (at Vasopressin V1a receptor; in assay [1]; in assay [2] (cho-k1); in assay [3] (cho-k1); against Acetylcholinesterase (hek293); on Cathepsin G) was “Not Active” in each case.
With `C=CCO` [ALLYL ALCOHOL], the IC50 result (at Vasopressin V1a receptor; in assay [1]; in assay [2] (cho-k1); in assay [3] (cho-k1); against Acetylcholinesterase (hek293); at Cathepsin G) was “Not Active” each time.
As for CARBOXYMETHYLCELLULOSE, the IC50 result (against Vasopressin V1a receptor; in assay [1]; in assay [2] (cho-k1); in assay [3] (cho-k1); at Acetylcholinesterase (hek293); against Cathepsin G) was “Not Active” in each case. For the same compound, the Ki entry (on Vasopressin V1a receptor; in assay [1]; in assay [2] (cho-k1); in assay [3] (cho-k1); on Acetylcholinesterase (hek293); on Cathepsin G) was “Not Active” each time.
With `C=CCN1CC[C@]23c4c5ccc(O)c4O[C@H]2/C(=N/N=C2\CC[C@@]4(O)[C@H]6Cc7ccc(O)c8c7[C@@]4(CCN6CC=C)[C@H]2O8)CC[C@@]3(O)[C@H]1C5` [NALOXONAZINE], the IC50 entry (against Vasopressin V1a receptor; in assay [1]; in assay [2] (cho-k1); in assay [3] (cho-k1); at Acetylcholinesterase (hek293); on Cathepsin G) was “Not Active” in each case.
For the compound `Cc1ccnc2c1NC(=O)c1cccnc1N2C1CC1` [NEVIRAPINE], the IC50 result (at Vasopressin V1a receptor; in assay [1]; in assay [2] (cho-k1); in assay [3] (cho-k1); on Acetylcholinesterase (hek293); against Cathepsin G) was “Not Active” in each case.
As to `NCC(CC(=O)O)c1ccc(Cl)cc1` (stereo not drawn) [BACLOFEN], the IC50 entry (against Vasopressin V1a receptor; in assay [1]; in assay [2] (cho-k1); in assay [3] (cho-k1); at Acetylcholinesterase (hek293); on Cathepsin G) was “Not Active” each time.
For the compound `CO[C@H]1O[C@@H]2O[C@@]3(C)CC[C@H]4[C@H](C)CC[C@@H]([C@H]1C)[C@@]24OO3`, the IC50 result (on Vasopressin V1a receptor; in assay [1]; in assay [2] (cho-k1); in assay [3] (cho-k1); on Acetylcholinesterase (hek293); against Cathepsin G) was “Not Active” each time.
As for `CC(CN1c2ccccc2Sc2ccccc21)N(C)C` (stereo not drawn) [PROMETHAZINE], the IC50 result is “Not Active” against Vasopressin V1a receptor; “Not Active” in assay [1]; 68 nM in assay [2] (read-out: IC50); 12 nM in assay [3] (read-out: IC50); “Not Active” on Acetylcholinesterase (hek293); “Not Active” on Cathepsin G. Moreover, the Ki was 43 nM in assay [2] (read-out: Ki) and 6.48 nM in assay [3] (read-out: Ki).
Regarding `O=C(O)CNCP(=O)(O)O` [GLYPHOSATE], the IC50 result (at Vasopressin V1a receptor; in assay [1]; in assay [2] (cho-k1); in assay [3] (cho-k1); at Acetylcholinesterase (hek293); on Cathepsin G) was “Not Active” in each case.
